These molecules were tested against rat brain cortical membranes ([35S]-TBPS binding) (assay: Steroid inhibition of [35S]-TBPS binding (radioligand displacement)). Conditions: 3 nM [35S]-TBPS, in the presence of 5 μM GABA.
Protocol: Steroid Inhibition of TBPS Binding
TBPS binding assays using rat brain cortical membranes in the presence of 5 μM GABA has been described (Gee et al, J. Pharmacol. Exp. Ther. 1987, 241, 346-353; Hawkinson et al, Mol. Pharmacol. 1994, 46, 977-985; Lewin, A. H et al., Mol. Pharmacol. 1989, 35, 189-194).
Briefly, cortices are rapidly removed following decapitation of carbon dioxide-anesthetized Sprague-Dawley rats (200-250 g). The cortices are homogenized in 10 volumes of ice-cold 0.32 M sucrose using a glass/teflon homogenizer and centrifuged at 1500×g for 10 min at 4° C. The resultant supernatants are centrifuged at 10,000×g for 20 min at 4° C. to obtain the P2 pellets. The P2 pellets are resuspended in 200 mM NaCl/50 mM Na—K phosphate pH 7.4 buffer and centrifuged at 10,000×g for 10 min at 4° C. This washing procedure is repeated twice and the pellets are resuspended in 10 volumes of buffer. Aliquots (100 uL) of the membrane suspensions are incubated with 3 nM [^35S]-TBPS and 5 μL aliquots of test drug dissolved in dimethyl sulfoxide (DMSO) (final 0.5%) in the presence of 5 μM GABA. The incubation is brought to a final volume of 1.0 mL with buffer. […] Following a 90 min incubation at room temp, the assays are terminated by filtration through glass fiber filters (Schleicher and Schuell No. 32) using a cell harvester (Brandel) and rinsed three times with ice-cold buffer. Filter bound radioactivity is measured by liquid scintillation spectrometry. Non-linear curve fitting of the overall data for each drug averaged for each concentration is done using Prism (GraphPad). […] The concentration of test compound producing 50% inhibition (IC50) of specific binding and the maximal extent of inhibition (Imax) are determined for the individual experiments with the same model used for the overall data and then the means±SEMs of the individual experiments are calculated.
Various compounds are or can be screened to determine their potential as modulators of [^35S]-TBPS binding in vitro. These assays are or can be performed in accordance with the above discussed procedures.

Question: `COc1ccc(C(=O)[C@H]2CC[C@H]3[C@@H]4CC[C@H]5C[C@](C)(O)CC[C@@H]5[C@H]4CC[C@]23C)cc1` [Compound 87] was tested. Which IC50 did it give?
Answer: > 100 nM

Question: For `C[C@@]1(O)CC[C@H]2[C@H](CC[C@@H]3[C@@H]2CC[C@]2(C)[C@@H](C(=O)c4cnc[nH]4)CC[C@@H]32)C1` [Compound 88], which IC50 is on record?
Answer: > 100 nM

Question: How did the IC50 turn out when `Cc1ccc(C(=O)[C@H]2CC[C@H]3[C@@H]4CC[C@@H]5C[C@](C)(O)CC[C@]5(C)[C@H]4CC[C@]23C)cc1` [Compound 89] was run?
Answer: 50 to 100 nM

Question: `COC[C@]12CC[C@@](C)(O)C[C@@H]1CC[C@H]1[C@@H]3CC[C@H](C(=O)c4ccccc4-c4ccccc4)[C@@]3(C)CC[C@@H]12` [Compound 91] was tested. Which IC50 did it give?
Answer: > 100 nM

Question: `COC[C@]12CC[C@@](C)(O)C[C@@H]1CC[C@H]1[C@@H]3CC[C@H](C(=O)c4ccc(C)cc4)[C@@]3(C)CC[C@@H]12` [Compound 92] was tested. Which IC50 did it give?
Answer: > 100 nM

Question: `COC[C@]12CC[C@@](C)(O)C[C@@H]1CC[C@H]1[C@@H]3CC[C@H](C(=O)c4cc(C)cc(C)c4)[C@@]3(C)CC[C@@H]12` [Compound 93] was tested. Which IC50 did it give?
Answer: 50 to 100 nM

Question: `COC[C@]12CC[C@@](C)(O)C[C@@H]1CC[C@H]1[C@@H]3CC[C@H](C(=O)c4ccc5c(c4)OCO5)[C@@]3(C)CC[C@@H]12` [Compound 94] was tested. Which IC50 did it give?
Answer: 50 to 100 nM

Question: For `COC[C@]12CC[C@@](C)(O)C[C@@H]1CC[C@H]1[C@@H]3CC[C@H](C(=O)c4ccc(C)c(C)c4)[C@@]3(C)CC[C@@H]12` [Compound 95], which IC50 is on record?
Answer: > 100 nM

Question: How did the IC50 turn out when `COC[C@]12CC[C@@](C)(O)C[C@@H]1CC[C@H]1[C@@H]3CC[C@H](C(=O)c4ccc(OC)cc4C)[C@@]3(C)CC[C@@H]12` [Compound 96] was run?
Answer: > 100 nM

Question: With `COC[C@]12CC[C@@](C)(O)C[C@@H]1CC[C@H]1[C@@H]3CC[C@H](C(=O)c4ccc5cc(OC)ccc5c4)[C@@]3(C)CC[C@@H]12` [Compound 97] as the molecule, how does the IC50 read?
Answer: > 100 nM

Question: `C[C@@]1(O)CC[C@H]2[C@H](CC[C@@H]3[C@@H]2CC[C@]2(C)[C@@H](C(=O)c4cnn[nH]4)CC[C@@H]32)C1` [Compound 98] was tested. Which IC50 did it give?
Answer: > 100 nM

Question: Which IC50 does the source give for `Cn1ncc(C(=O)[C@H]2CC[C@H]3[C@@H]4CC[C@@H]5C[C@](C)(O)CC[C@@H]5[C@H]4CC[C@]23C)n1` [Compound 99] here?
Answer: > 100 nM

Question: For `Cn1cc(C(=O)[C@H]2CC[C@H]3[C@@H]4CC[C@@H]5C[C@](C)(O)CC[C@@H]5[C@H]4CC[C@]23C)nn1` [Compound 100], which IC50 is on record?
Answer: > 100 nM

Question: With `C[C@@]1(O)CC[C@@]2(C)[C@@H](CC[C@@H]3[C@@H]2CC[C@]2(C)[C@@H](C(=O)c4cccc(Cl)c4)CC[C@@H]32)C1` [Compound 101] as the molecule, how does the IC50 read?
Answer: > 100 nM

Question: How did the IC50 turn out when `COC[C@]12CC[C@@](C)(O)C[C@@H]1CC[C@H]1[C@@H]3CC[C@H](C(=O)c4ccc(OC(F)(F)F)cc4)[C@@]3(C)CC[C@@H]12` [Compound 102] was run?
Answer: 50 to 100 nM

Question: With `COC[C@]12CC[C@@](C)(O)C[C@@H]1CC[C@H]1[C@@H]3CC[C@H](C(=O)c4cccc(C)c4)[C@@]3(C)CC[C@@H]12` [Compound 103] as the molecule, how does the IC50 read?
Answer: > 100 nM

Question: With `CCc1ccc(C(=O)[C@H]2CC[C@H]3[C@@H]4CC[C@H]5C[C@](C)(O)CC[C@]5(COC)[C@H]4CC[C@]23C)cc1` [Compound 104] as the molecule, how does the IC50 read?
Answer: > 100 nM

Question: How did the IC50 turn out when `COC[C@]12CC[C@@](C)(O)C[C@@H]1CC[C@H]1[C@@H]3CC[C@H](C(=O)c4ccccc4OC)[C@@]3(C)CC[C@@H]12` [Compound 105] was run?
Answer: > 100 nM

Question: For `COC[C@]12CC[C@@](C)(O)C[C@@H]1CC[C@H]1[C@@H]3CC[C@H](C(=O)c4cccc(OC)c4)[C@@]3(C)CC[C@@H]12` [Compound 106], which IC50 is on record?
Answer: > 100 nM

Question: `COC[C@]12CC[C@@](C)(O)C[C@@H]1CC[C@H]1[C@@H]3CC[C@H](C(=O)c4ccc(OC)cc4)[C@@]3(C)CC[C@@H]12` [Compound 107] was tested. Which IC50 did it give?
Answer: 50 to 100 nM

Question: Which IC50 does the source give for `C[C@@]1(O)CC[C@@]2(C)[C@@H](CC[C@@H]3[C@@H]2CC[C@]2(C)[C@@H](C(=O)c4ccc(OC(F)(F)F)cc4)CC[C@@H]32)C1` [Compound 108] here?
Answer: > 100 nM

Question: For `COC[C@]12CC[C@@](C)(O)C[C@@H]1CC[C@H]1[C@@H]3CC[C@H](C(=O)c4ccc(N(C)C)cc4)[C@@]3(C)CC[C@@H]12` [Compound 109], which IC50 is on record?
Answer: > 100 nM

Question: For `COC[C@]12CC[C@@](C)(O)C[C@@H]1CC[C@H]1[C@@H]3CC[C@H](C(=O)c4cccc(Cl)c4)[C@@]3(C)CC[C@@H]12` [Compound 110], which IC50 is on record?
Answer: 50 to 100 nM

Question: For `CN(C)c1ccc(C(=O)[C@H]2CC[C@H]3[C@@H]4CC[C@H]5C[C@](C)(O)CC[C@@H]5[C@H]4CC[C@]23C)cc1` [Compound 111], which IC50 is on record?
Answer: > 100 nM

Question: How did the IC50 turn out when `C[C@@]1(O)CC[C@@]2(C)[C@@H](CC[C@@H]3[C@@H]2CC[C@]2(C)[C@@H](C(=O)c4ccccn4)CC[C@@H]32)C1` [Compound 113] was run?
Answer: > 100 nM

Question: With `CN(C)c1ccc(C(=O)[C@H]2CC[C@H]3[C@@H]4CC[C@H]5C[C@](C)(O)CC[C@]5(C)[C@H]4CC[C@]23C)cc1` [Compound 114] as the molecule, how does the IC50 read?
Answer: > 100 nM

Question: How did the IC50 turn out when `COC[C@]12CC[C@@](C)(O)C[C@@H]1CC[C@H]1[C@@H]3CC[C@H](C(=O)c4ccccn4)[C@@]3(C)CC[C@@H]12` [Compound 115] was run?
Answer: > 100 nM

Question: With `Cn1ccc(C(=O)[C@H]2CC[C@H]3[C@@H]4CC[C@H]5C[C@](C)(O)CC[C@]5(C)[C@H]4CC[C@]23C)n1` [Compound 123] as the molecule, how does the IC50 read?
Answer: > 100 nM

Question: `Cn1cc(C(=O)[C@H]2CC[C@H]3[C@@H]4CC[C@H]5C[C@](C)(O)CC[C@]5(C)[C@H]4CC[C@]23C)cn1` [Compound 124] was tested. Which IC50 did it give?
Answer: 50 to 100 nM

Question: Which IC50 does the source give for `C[C@@]1(O)CC[C@@]2(C)[C@@H](CC[C@@H]3[C@@H]2CC[C@]2(C)[C@@H](C(=O)c4cccnc4)CC[C@@H]32)C1` [Compound 125] here?
Answer: 20 to 50 nM

Question: For `C[C@@]1(O)CC[C@@]2(C)[C@@H](CC[C@@H]3[C@@H]2CC[C@]2(C)[C@@H](C(=O)c4ccccc4-c4ccccc4)CC[C@@H]32)C1` [Compound 127], which IC50 is on record?
Answer: > 100 nM

Question: Which IC50 does the source give for `COc1ccc2cc(C(=O)[C@H]3CC[C@H]4[C@@H]5CC[C@H]6C[C@](C)(O)CC[C@]6(C)[C@H]5CC[C@]34C)ccc2c1` [Compound 128] here?
Answer: > 100 nM

Question: For `COc1cc(OC)cc(C(=O)[C@H]2CC[C@H]3[C@@H]4CC[C@@H]5C[C@](C)(O)CC[C@@H]5[C@H]4CC[C@]23C)c1` [Compound 130], which IC50 is on record?
Answer: 20 to 50 nM

Question: For `COc1ccc(C(=O)[C@H]2CC[C@H]3[C@@H]4CC[C@H]5C[C@](C)(O)CC[C@]5(C)[C@H]4CC[C@]23C)c(C)c1` [Compound 132], which IC50 is on record?
Answer: > 100 nM

Question: `C[C@@]1(O)CC[C@@]2(C)[C@@H](CC[C@@H]3[C@@H]2CC[C@]2(C)[C@@H](C(=O)c4ccc5c(c4)OCO5)CC[C@@H]32)C1` [Compound 133] was tested. Which IC50 did it give?
Answer: > 100 nM

Question: Which IC50 does the source give for `CCc1ccc(C(=O)[C@H]2CC[C@H]3[C@@H]4CC[C@H]5C[C@](C)(O)CC[C@]5(C)[C@H]4CC[C@]23C)cc1` [Compound 134] here?
Answer: > 100 nM

Question: `Cc1cc(C)cc(C(=O)[C@H]2CC[C@H]3[C@@H]4CC[C@H]5C[C@](C)(O)CC[C@]5(C)[C@H]4CC[C@]23C)c1` [Compound 135] was tested. Which IC50 did it give?
Answer: > 100 nM

Question: `C[C@@]1(O)CC[C@H]2[C@H](CC[C@@H]3[C@@H]2CC[C@]2(C)[C@@H](C(=O)c4cc(F)cc(F)c4)CC[C@@H]32)C1` [Compound 136, (3,5-difluorophenyl)((3R,5R,8R,9R,10S,13S,14S,17S)-3-hydroxy-3,13-dimethylhexadecahydro-1H-cyclopenta[a]phenanthren-17-yl)methanone] was tested. Which IC50 did it give?
Answer: 20 to 50 nM

Question: `Cc1cc(C(=O)[C@H]2CC[C@H]3[C@@H]4CC[C@@H]5C[C@](C)(O)CC[C@]5(C)[C@H]4CC[C@]23C)ccc1F` [Compound 137] was tested. Which IC50 did it give?
Answer: 20 to 50 nM
